The record followed here is patent US8168667B2 (Galapagos NV, priority 2006, dated 2012).

Like-named read-outs stand apart in the source and are kept apart here.

This assay has as its target T1, human androgen receptor (hAR) (Homo sapiens, UniProt P10275).
T1 sequence (P10275 1-920): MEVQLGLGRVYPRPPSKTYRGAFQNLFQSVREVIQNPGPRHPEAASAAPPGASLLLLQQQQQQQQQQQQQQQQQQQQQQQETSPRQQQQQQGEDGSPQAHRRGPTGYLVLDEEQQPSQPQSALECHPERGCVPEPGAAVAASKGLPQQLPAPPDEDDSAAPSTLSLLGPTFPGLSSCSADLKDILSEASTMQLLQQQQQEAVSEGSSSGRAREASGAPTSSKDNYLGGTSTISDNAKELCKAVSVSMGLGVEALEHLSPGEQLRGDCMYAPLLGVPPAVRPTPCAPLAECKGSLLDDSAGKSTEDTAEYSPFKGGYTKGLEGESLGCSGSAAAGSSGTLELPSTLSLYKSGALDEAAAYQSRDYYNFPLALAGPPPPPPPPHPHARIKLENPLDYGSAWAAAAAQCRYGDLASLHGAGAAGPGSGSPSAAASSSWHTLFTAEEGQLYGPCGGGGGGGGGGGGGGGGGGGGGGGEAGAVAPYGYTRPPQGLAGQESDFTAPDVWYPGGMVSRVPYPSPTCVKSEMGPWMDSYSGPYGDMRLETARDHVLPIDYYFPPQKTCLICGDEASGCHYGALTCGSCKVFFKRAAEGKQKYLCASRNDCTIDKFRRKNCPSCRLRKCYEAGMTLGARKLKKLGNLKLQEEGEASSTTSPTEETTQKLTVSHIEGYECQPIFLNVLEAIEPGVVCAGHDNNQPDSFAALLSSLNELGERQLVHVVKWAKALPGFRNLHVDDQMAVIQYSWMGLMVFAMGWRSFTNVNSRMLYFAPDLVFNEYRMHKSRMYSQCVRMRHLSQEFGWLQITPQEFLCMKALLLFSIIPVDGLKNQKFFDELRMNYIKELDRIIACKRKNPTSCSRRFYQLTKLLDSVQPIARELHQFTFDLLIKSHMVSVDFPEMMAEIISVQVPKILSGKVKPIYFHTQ
Description: Functional response test: hAR transactivation (luciferase reporter) in HALP2 cells. Type of assay: cell-based. Particulars: for EC50: agonism, HALP2 cells (HeLa, hAR + ARE-luciferase), 20 hours at 37° C. The procedure, abridged:
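HALP2 cells are HeLa cells stably transfected with CMV-driven hAR and a probasin ARE-luciferase reporter. They were seeded 24 h ahead, then exposed to compounds for 20 hours at 37° C in phenol red-free DMEM with 5% desteroided serum. Luciferase luminescence was measured after lysis; for antagonist mode, compounds were tested against increasing DHT concentrations.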
(Reporter assays use an easily measured gene product as a stand-in for the process of interest.)

Setting [1] is: antagonism, concentration which increases the EC50 of the DHT by a factor of 2, Schild regression, HALP2 cells.

One may read the EC50 as the midpoint of the concentration-response curve.

`CC1(c2ccc(O)cc2)C(=O)N(c2ccc(Cl)c(Cl)c2)C(=O)N1CCCCO` (stereo not shown) [Example 22, 1-(3,4-dichlorophenyl)-3-(4-hydroxybutyl)-4-(4-hydroxyphenyl)-4-methylimidazolidine-2,5-dione]: the concentration for a half-maximal effect (EC50) is 15 nM. The “KSchild (nM) potency” value under setting [1] is 15 nM.

For the compound `CC(=O)OCC#CCN1C(=O)N(c2ccc(Cl)c(Cl)c2)C(=O)C1(C)c1ccc(O)cc1` (stereo not shown) [Example 223, 4-[1-(3,4-dichlorophenyl)-2,5-dioxo-4-methyl-4-(4-hydroxyphenyl)imidazolidin-3-yl]-2-butynyl acetate], the 50% effective concentration (EC50) came to 12.3 nM. Further, the “KSchild (nM) potency” value under setting [1] is reported as 12.25 nM.

Turning to `O=C1C(c2ccc(O)cc2)N(Cc2ccsc2)C(=O)N1c1ccc([N+](=O)[O-])cc1` (stereo not shown) [Example 53], the “KSchild (nM) potency” value is 9.74 nM.

Turning to `O=C1C(c2ccc(O)cc2)N(Cc2ccsc2)C(=S)N1c1ccc(Cl)cc1Cl` (stereo not shown) [Example 18, 1-(2,4-dichlorophenyl)-4-(4-hydroxyphenyl)-3-[(thiophen-3-yl)methyl]-2-thioxo-imidazolidin-5-one], the half-maximal effective concentration (EC50) worked out at 5660 nM. For the same compound, the “KSchild (nM) potency” value under setting [1] is 5656.85 nM.

With `CN1C(=O)N(c2ccc(C#N)c(C(F)(F)F)c2)C(=O)[C@]1(CF)c1ccc(O)cc1` [Example 177.1, (S)-4-[4-fluoromethyl-4-(4-hydroxyphenyl)-3-methyl-2,5-dioxoimidazolidin-1-yl]-2-trifluoromethylbenzonitrile], the “KSchild (nM) potency” value turned out to be 310 nM.

In the case of `C=CCOCC1(c2ccc(OC)cc2)C(=O)N(c2ccc(Cl)c(Cl)c2)C(=O)N1C` (stereo not shown) [Example 171, 1-(3,4-dichlorophenyl)-4-(4-methoxyphenyl)-3-methyl-4-[(2-propenyloxy)methyl]-imidazolidine-2,5-dione], the EC50 is 600 nM.

As to `O=C1C(c2ccc(O)cc2)N(CCO)C(=O)N1c1ccc(Cl)c(Cl)c1` (stereo not shown) [Example 139], the EC50 was 44.7 nM. For the same compound, the “KSchild (nM) potency” value under setting [1] is on record as 28.28 nM.

On to `N#Cc1ccc(N2C(=O)C(c3ccc(O)cc3)N(Cc3ccc4c(c3)OCO4)C2=O)cc1C(F)(F)F` (stereo not shown) [Example 97], for which the “KSchild (nM) potency” value is recorded as 28.28 nM.

As to `N#CCN1C(=O)N(c2cccc(C(F)(F)F)c2)C(=O)C1c1ccc(O)cc1` (stereo not shown) [Example 96], the EC50 was found to be 693 nM. Besides, under setting [1], the “KSchild (nM) potency” value worked out at 692.82 nM.

Turning to `C#CCN1C(=S)N(c2ccc(Cl)c(Cl)c2)C(=O)C1(C)c1ccc(O)cc1` (stereo not shown) [Example 41, 1-(3,4-dichlorophenyl)-4-(4-hydroxyphenyl)-4-methyl-3-(2-propynyl)-2-thioxoimidazolidin-5-one], the EC50 worked out at 25.3 nM. The “KSchild (nM) potency” value under setting [1] came to 15.49 nM.

For the compound `CC1(c2ccc(O)cc2)C(=O)N(c2ccc(C#N)c(C(F)(F)F)c2)C(=O)N1CCO` (stereo not shown) [Example 239, 4-[2,5-dioxo-3-(2-hydroxyethyl)-4-(4-hydroxyphenyl)-4-methylimidazolidin-1-yl]-2-trifluoromethylbenzonitrile], the “KSchild (nM) potency” value came to 10 nM.

For the compound `CN(C)CCN1C(=O)N(c2ccc(Cl)c(C(F)(F)F)c2)C(=O)C1c1ccc(O)cc1` (stereo not shown) [Example 117], the concentration giving a half-maximal response (EC50) was 77.5 nM. The “KSchild (nM) potency” value under setting [1] is reported as 77.46 nM.

Regarding `CN1C(=O)N(c2ccc(C#N)c3c2CCC3)C(=O)C1(C)c1ccc(O)cc1` (stereo not shown) [Example 33, 2,3-dihydro-7-[3,4-dimethyl-2,5-dioxo-4-(4-hydroxyphenyl)imidazolidin-1-yl]-4(1H)-indenenitrile], the “KSchild (nM) potency” value was 0.78 nM.

For `CN(C)CCN1C(=O)N(c2ccc(Cl)c(Cl)c2)C(=O)C1c1ccc(O)cc1` (stereo not shown) [Example 115], the EC50 is 141 nM. Under setting [1], the “KSchild (nM) potency” value is on record as 141.42 nM.

Consider `CC1(c2ccc(O)cc2)C(=O)N(c2ccc(Cl)c(Cl)c2)C(=S)N1CCC#N` (stereo not shown) [Example 42, 3-[1-(3,4-dichlorophenyl)-4-(4-hydroxyphenyl)-4-methyl-5-oxo-2-thioxoimidazolidin-3-yl]-propionitrile], for which the 50% effective concentration (EC50) came to 8 nM. Further, the “KSchild (nM) potency” value under setting [1] came to 4.9 nM.

With `CCOCCCN1C(=O)N(c2cccc(C(F)(F)F)c2)C(=O)C1c1ccc(O)cc1` (stereo not shown) [Example 89], the half-maximal effective concentration (EC50) was determined as 200 nM. Besides, under setting [1], the “KSchild (nM) potency” value is 200 nM.

On to `CC1(c2ccc(O)cc2)C(=O)N(c2ccc(C#N)c(C(F)(F)F)c2)C(=O)N1C1CC1` (stereo not shown) [Example 24.1, 4-[3-cyclopropyl-2,5-dioxo-4-(4-hydroxyphenyl)-4-methylimidazolidin-1-yl]-2-trifluoromethylbenzonitrile], for which the “KSchild (nM) potency” value is 10 nM.

As for `CN1C(=O)N(c2ccc(C#N)c3c2CCCC3)C(=O)C1(C)c1ccc(O)cc1` (stereo not shown) [Example 34, 8-[3,4-dimethyl-2,5-dioxo-4-(4-hydroxyphenyl)imidazolidin-1-yl]-1,2,3,4-tetrahydro-5-naphthonitrile], the “KSchild (nM) potency” value was found to be 3.3 nM.

Turning to `CC12C(=O)N(c3ccc(C#N)c(C(F)(F)F)c3)C(=O)N1Cc1cc(O)ccc12` (stereo not shown) [Example 158, 4-[1,3-dioxo-7-hydroxy-9b-methyl-1,2,3,9b-tetrahydro-5H-imidazo[5,1-a]isoindol-2-yl]-2-trifluoromethylbenzonitrile], the “KSchild (nM) potency” value is on record as 30 nM.

As to `O=C1C(c2ccc(O)cc2)N(Cc2ccc3c(c2)OCO3)C(=O)N1c1ccc(F)c(F)c1` (stereo not shown) [Example 100], the EC50 was 77.5 nM. Besides, under setting [1], the “KSchild (nM) potency” value is recorded as 77.46 nM.

For the compound `CN1C(=O)N(c2ccc(Cl)c(Cl)c2)C(=O)C1(CO)c1ccc(O)cc1` (stereo not shown) [Example 190, 1-(3,4-dichlorophenyl)-4-hydroxymethyl-4-(4-hydroxyphenyl)-3-methylimidazolidine-2,5-dione], the “KSchild (nM) potency” value under setting [1] is reported as 0.37 nM.

As for `O=C1C(c2ccc(O)cc2)N(CCCCO)C(=O)N1c1ccc(F)c(C(F)(F)F)c1` (stereo not shown) [Example 135], the “KSchild (nM) potency” value is reported as 600 nM.

As for `COc1ccc(C2(C(F)(F)F)C(=O)N(c3ccc(C#N)c(C(F)(F)F)c3)C(=O)N2C)cc1` (stereo not shown) [Example 161, 4-[2,5-dioxo-4-(4-methoxyphenyl)-3-methyl-4-trifluoromethylimidazolidin-1-yl]-2-trifluoromethylbenzonitrile], the “KSchild (nM) potency” value is recorded as 60 nM.

On to `CC(=O)CN1C(=O)N(c2ccc(C#N)c(C(F)(F)F)c2)C(=O)C1(C)c1ccc(O)cc1` (stereo not shown) [Example 235, 4-[2,5-dioxo-4-(4-hydroxyphenyl)-4-methyl-3-(2-oxopropyl)imidazolidin-1-yl]-2-trifluoromethylbenzonitrile], for which the “KSchild (nM) potency” value is reported as 8 nM.

On to `COC(=O)CCN1C(=O)N(c2ccc(C#N)c(C(F)(F)F)c2)C(=O)C1(C)c1ccc(O)cc1` (stereo not shown) [Example 234, 4-[2,5-dioxo-4-(4-hydroxyphenyl)-3-[2-(methoxycarbonyl)ethyl]-4-methylimidazolidin-1-yl]-2-trifluoromethylbenzonitrile], for which the “KSchild (nM) potency” value is listed as 15 nM.

In the case of `CCCC1(c2ccc(OC)cc2)C(=O)N(c2ccc(C#N)c(C(F)(F)F)c2)C(=O)N1C` (stereo not shown) [Example 166.1, 4-[2,5-dioxo-4-(4-methoxyphenyl)-3-methyl-4-propylimidazolidin-1-yl]-2-trifluoromethylbenzonitrile], the “KSchild (nM) potency” value was 400 nM.

As to `COC(=O)CN1C(=O)N(c2ccc(C#N)c(C(F)(F)F)c2)C(=O)C1(C)c1ccc(O)cc1` (stereo not shown) [Example 227, 4-[2,5-dioxo-4-(4-hydroxyphenyl)-3-[(methoxycarbonyl)methyl]-4-methylimidazolidin-1-yl]-2-trifluoromethylbenzonitrile], the “KSchild (nM) potency” value is reported as 3.46 nM.

Consider `CC1(c2ccc(O)cc2)C(=O)N(c2ccc(C#N)c(C(F)(F)F)c2)C(=O)N1C1CCCC1` (stereo not shown) [Example 24.2, 4-[3-cyclopentyl-2,5-dioxo-4-(4-hydroxyphenyl)-4-methylimidazolidin-1-yl]-2-trifluoromethylbenzonitrile], for which the “KSchild (nM) potency” value under setting [1] stood at 20 nM.

As for `CC1(c2ccc(O)cc2)C(=O)N(c2ccc(C#N)c(C(F)(F)F)c2)C(=O)N1CC(N)=O` (stereo not shown) [Example 231, 4-[3-[(aminocarbonyl)methyl]-2,5-dioxo-4-(4-hydroxyphenyl)-4-methylimidazolidin-1-yl]-2-trifluoromethylbenzonitrile], the “KSchild (nM) potency” value amounted to 60 nM.

Consider `N#CCCN1C(=O)N(c2ccc(Cl)c(C(F)(F)F)c2)C(=O)C1c1ccc(O)cc1` (stereo not shown) [Example 125], for which the “KSchild (nM) potency” value came to 30 nM.

As for `N#CCCN1C(=O)N(c2ccc(F)c(Cl)c2)C(=O)C1c1ccc(O)cc1` (stereo not shown) [Example 127], the concentration giving a half-maximal response (EC50) turned out to be 245 nM. Besides, the “KSchild (nM) potency” value under setting [1] was 212.13 nM.
